According to patent US6046228A, “Anti-viral pharmaceutical compositions containing saturated 1,2-dithiaheterocyclic compounds and uses thereof” (priority 1999, dated 2000):
pEC50: −log10 of the molar value.

Legend:
[1] = test system: HIV-1IIIB; assay: combination antiviral XTT assay, CEM-SS cells, method of Prichard and Shipman; type: cell-based; conditions: for synergy volume: 95% confidence level
Experimental: Analysis of drug combinations was performed utilizing the XTT assay described above, with statistical evaluations performed according to the method of Prichard and Shipman (Antiviral Res. 14: 181-206, (1990)). Combination antiviral XTT assays were performed with CEM-SS cells utilizing HIV-1IIIB as previously described (Buckheit et al., Antimicrobial Agents and Chemotherapy 39: 2718-2727, (1995)). The standard anti-HIV assay was altered for combination analysis by increasing the multiplicity of infection 3-fold, allowing greater statistical consistency in these assays.
The synergy volumes for the combinatorial anti-HIV activities calculated at the 95% confidence level were 37, 80, 44, 55 and 16 μM^2, respectively, for each combination. Synergy volumes that range from […] represent additivity and volumes>50% represent synergistic responses. […] Thus, it is anticipated that the present dithiane dioxide compounds can be used in pharmaceutical compositions further including other antiviral agents.

[2] = target: T1, HIV-1 p7NC protein (Human immunodeficiency virus type 1 group M subtype B, UniProt P04591); assay: Trp37 zinc finger fluorescence assay (zinc ejection from p7NC); type: biochemical; conditions: for p7NC Trp37 Assay (RFU): 25 μM compound; for loss of Trp37 fluorescence of p7NC: 25 μM
T1 construct: recombinant HIV-1 p7NC protein
Experimental: Fluorescence measurements of the Trp^37 residue in the C-terminal zinc finger of the recombinant HIV-1 p7NC protein were performed as previously described (Rice et al., Science 270:1194, 1995). The p7NC protein was prepared at 20 μg/ml in 10 mM sodium phosphate buffer (pH 7.0), treated with 25 μM of each compound, then after indicated time intervals the samples were diluted 1/10 in 10 mM sodium phosphate buffer (pH 7.0) and the fluorescence intensity measured. The excitation and emission wavelengths utilized with the Shimadzu RF5000 spectrofluorimeter were 280 nm and 351 nm, respectively. In an alternate assay, the zinc-selective fluorescent probe N-(6-methoxy-8quinolyl-)-p-toluenesulfonamide (TSQ, Molecular Probes, Eugene, Oreg.) originally described by Fredrickson (J. Neurosci. Meth. 20:91, 1987) was utilized to measure zinc released from the p7NC protein in vitro. Briefly, 2 μM recombinant HIV-1 p7NC protein in 10 mM sodium phosphate buffer, pH 7.0, 10% glycerol was treated with 10 μM 624151 ([…] total volume in 96-well plates), and the time-dependent increase in fluorescence was measured on a Labsystems Fluoroskan II (360 nm excitation filter and 460 nm emission filter) over a period of 2 hours. Induction of alterations of p7NC proteins within intact virions involved treatment of HIV-1MN for 1 hour at 37° C. with 25 μM test compound. Samples were centrifuged 1 hour at 4° C. under 18,000×g to pellet the virus from the drug. Virus pellets were resolved by non-reducing SDS-PAGE and analyzed by immunoblot using monospecific rabbit antisera to the purified p7NC protein.
^b The percent decrease in RFU was calculated based on measurement of
the initial fluorescence of the p7NC protein before and 10 minutes after
treatment with the 25 μM of compound at ambient temperature.
The ability of 624151 to chemically interact with the zinc fingers of the HIV-1 p7NC protein was initially determined by a fluorescence assay (Rice et al., Science 270:1194-1197, (1995)) that measures a loss in intrinsic fluorescence of the tryptophan (Trp^37) residue in the second finger of the protein that occurs upon loss of zinc from the finger (Summers et al., Protein Sci. 1:563, 1992). […] As the 624151 modifies the zinc finger thiolates and the zinc is ejected over time, the metal is bound by the TSQ fluorochrome (FIG. 1(B)).
Sodium Phosphate buffer, pH 7.0 in 1 ml was treated with 25 μM of
compound. At indicated times, the mixture was diluted 1/10 and the
relative fluorescence units (RFU) measured in a Shimadzu RF5000
spectrofluorimeter with […] and Em = 351 mn. Following
loss of zinc from the Cterminal zinc finger, the Trp37 residue folds away
from the # aqueous environment and experiences a loss of fluorescence.

[3] = test system: HIV-1 VIHU(NSI); assay: antiviral assay in PBL (p24), clinical isolate VIHU; type: cell-based; conditions: Human immunodeficiency virus 1, cell-free p24
Experimental: Initial anti-HIV screening was performed with CEM-SS cells and HIV-1RFusing the XTT cytoprotection assay as previously described (Weislow et al., J. National Cancer Inst. 81: 577-586, (1989)). HIV-1 isolates included common laboratory stains (RF, IIIB and MN), as well as a panel of HIV-1 clinical isolates (Cushman et al., J. Med. Chem. 37: 3040-3050, (1994)). The pyridone-resistant HIV-1A17 isolate (Nunberg et al., J. Virol., 65: 4887-4892 (1991)) was obtained from Emilio Emini at Merck Sharpe and Dohme Laboratories. Phytohemagglutinin-stimulated human peripheral blood lymphocytes (PBLs) and fresh monocyte-macrophage (Mono/MF) cultures were prepared and utilized in antiviral assays as previously described (Rice et al., Proc. Nat'l. Academy Science, USA 90: 9721-9724, (1993)); (Cushman et al., J. Med. Chem. 37: 3040-3050, (1994)). EC50 values for these cultures indicate the drug concentration that provided a 50% reduction in viral p24 production. […] The compounds can be synthesized according to the teachings of Singh et al., Sulfur Letters 8: 107-114, (1988). The 4,5-cis-dihydroxy(1,1-dioxy-1,2,-dithiohexane) compound (NSC 624151) has been abbreviated as 624151 for convenience. […]

SMILES: O=S1(=O)C[C@H](O)[C@H](O)CS1 (relative stereo) [NSC 624151, cis-1,1-dioxo[1,2]dithiane-4,5-diol]
- combination response with other antiviral agents ([1]; AZT, ddC, 3TC, Costatolide or KNI-272, in words): additive to slightly synergistic response in combination with other antiviral agents, but was not antagonistic with any agents tested
- synergy volume ([1]; in combination with 3TC): 44 μM^2
- synergy volume ([1]; in combination with AZT): 37 μM^2
- synergy volume ([1]; in combination with Costatolide): 55 μM^2
- synergy volume ([1]; in combination with KNI-272 protease inhibitor): 16 μM^2
- synergy volume ([1]; in combination with ddC): 80 μM^2
- p7NC Trp37 Assay (RFU) ([2]; 0 min): 295 RFU
- p7NC Trp37 Assay (RFU) ([2]; 3 min): 136 RFU
- p7NC Trp37 Assay (RFU) ([2]; 10 min): 75 RFU
- p7NC Trp37 Assay (RFU) ([2]; 30 min): 42 RFU
- loss of Trp37 fluorescence of p7NC ([2]; FIG. 1(A), in words): time dependent loss of fluorescence
- loss of Trp37 fluorescence of p7NC ([2]; FIG. 1(A), in words, listed as 624151): time-dependent loss of fluorescence
- zinc ejection ([2]; FIG. 1(A), in words): promotes zinc ejection
- reactivity with the zinc fingers ([2]; in words): reacted aggressively with the p7NC protein zinc fingers
- pEC50 [3]: 4.92
